Test results as given in US10561655B2 (SYNBLia Therapeutics, Inc., priority 2018, dated 2020).
Read-outs that look alike come from different tables or passages of the source.

Key:
cells = assay: Cell Proliferation Assay (CellTiter Glo); format: cell-based
Procedure: Firstly, the cells were seeded in 384-well cell culture plate and incubate overnight. The test compounds were added to the cell plate and incubated for 3-5 days. The cell plate was then detected using CellTiter Glo reagents.

p-ERK/total ERK = p-ERK/total ERK Cellular Assay; format: cell-based
Procedure: p-ERK/total ERK Cellular Assay
Cells were seeded in 384-well cell culture plate and incubated overnight. Test compounds were added to the cell plate and the plate was incubated for 2-6 hours. To detect p-ERK, the cell plate was used AlphaLISA SureFire Ultra p-ERK kit; to detect total ERK, the cell plate was used total ERK HTRF kit. The plate was read on the Envision.

Full length SHP2 enzyme = Full length SHP2 enzyme (Homo sapiens (Human), UniProt Q06124); assay: SHP2 Phosphatase Assays; format: biochemical; settings: full length SHP2 0.1 nM, 1 uM IRS-1 peptide, DiFMUP substrate, room temperature
Sequence of Full length SHP2 enzyme (Q06124 whole entry): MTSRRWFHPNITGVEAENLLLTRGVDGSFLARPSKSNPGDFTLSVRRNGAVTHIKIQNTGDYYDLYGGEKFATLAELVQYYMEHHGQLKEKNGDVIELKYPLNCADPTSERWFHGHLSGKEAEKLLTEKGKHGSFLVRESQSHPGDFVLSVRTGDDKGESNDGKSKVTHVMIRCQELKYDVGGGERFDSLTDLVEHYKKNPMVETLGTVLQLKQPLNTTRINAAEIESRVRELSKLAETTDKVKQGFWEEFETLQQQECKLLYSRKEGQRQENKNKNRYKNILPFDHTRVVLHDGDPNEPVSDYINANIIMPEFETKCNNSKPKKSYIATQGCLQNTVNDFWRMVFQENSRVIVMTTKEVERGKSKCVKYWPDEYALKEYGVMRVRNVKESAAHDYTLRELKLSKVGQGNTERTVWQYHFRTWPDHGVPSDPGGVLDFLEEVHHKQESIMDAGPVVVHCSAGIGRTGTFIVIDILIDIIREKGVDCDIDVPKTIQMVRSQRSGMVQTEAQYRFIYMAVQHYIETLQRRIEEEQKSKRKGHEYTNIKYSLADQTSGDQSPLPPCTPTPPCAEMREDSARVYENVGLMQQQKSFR
Procedure: IC50 values were determined at room temperature in 384-well black polystyrene plate, using a final reaction volume of 15 μl and the following assay buffer conditions: 60 mM Hepes (pH=7.2), 75 mM NaCl, 75 mM KCl, and 1 mM EDTA, 0.05% P-20, 5 mM dithiothreitol (DTT). Full length SHP2 enzyme (diluted to 0.1 nM in reaction buffer) were co-incubated with 1 uM IRS-1 peptide and 0.01 nM to 10 μM compounds of the disclosure for 60 min. The surrogate substrate DiFMUP (5 μL, […]) was added, and incubated at rt for 60 min. The reaction was then quenched by the addition of 5 μL of a 40 μM solution of bpV(Phen). The fluorescence signal was monitored using a microplate reader (Envision, Perkin-Elmer) using excitation and emission wavelengths of 360 nm and 450 nm, respectively. The inhibitor dose-response curves were analyzed using normalized IC50 regression curve fitting with control-based normalization.

[1] = 3-5 days incubation, CellTiter Glo, read-out: IC50
[2] = p-ERK (AlphaLISA SureFire Ultra) / total ERK (HTRF), 2-6 hours incubation, read-out: IC50

Structure (SMILES)	IC50 (cells; [1]) [nM]	IC50 (p-ERK/total ERK; [2]) [nM]	IC50 (Full length SHP2 enzyme) [nM]	IC50 (cells) [nM]	IC50 (p-ERK/total ERK) [nM]
C[C@@H]1OCC2(CCN(c3ncc(Sc4ccnc(Cl)c4Cl)[nH]c3=O)CC2)[C@@H]1N [Compound 81, 3-((3S,4S)-4-amino-3-methyl-2-oxa-8-azaspiro[4.5]decan-8-yl)-6-((2,3-dichloropyridin-4-yl)thio)pyrazin-2(1H)-one]	< 1000	< 100	≤ 50		
NC1C2CN(c3ncc(Sc4cccc(Cl)c4Cl)[nH]c3=O)CC12 (centres unmarked) [Compound 86, 3-(6-amino-3-azabicyclo[3.1.0]hexan-3-yl)-6-((2,3-dichlorophenyl)thio)pyrazin-2(1H)-one]			≤ 50		
N[C@@H]1COCC12CCN(c1ncc(Sc3cccc(Cl)c3Cl)[nH]c1=O)CC2 [Compound 73, (S)-3-(4-amino-2-oxa-8-azaspiro[4.5]decan-8-yl)-6-((2,3-dichlorophenyl)thio)pyrazin-2(1H)-one]	< 5000	< 100	≤ 50		
N[C@@H]1c2ccccc2CC12CCN(c1ncc(Sc3cccc(Cl)c3Cl)[nH]c1=O)CC2 [Compound 108, (S)-3-(1-amino-1,3-dihydrospiro[indene-2,4′-piperidin]-1′-yl)-6-((2,3-dichlorophenyl)thio)pyrazin-2(1H)-one]			≤ 50		
COc1cccc(Sc2cnc(N3CCC4(CC3)CO[C@@H](C)[C@H]4N)c(=O)[nH]2)c1Cl [Compound 79, 3-((3S,4S)-4-amino-3-methyl-2-oxa-8-azaspiro[4.5]decan-8-yl)-6-((2-chloro-3-methoxyphenyl)thio)pyrazin-2(1H)-one]		< 100	≤ 50		
C[C@@H]1OCC2(CCN(c3ncc(Sc4ccnc(F)c4F)[nH]c3=O)CC2)[C@@H]1N [Compound 84]	< 1000	< 100	≤ 50		
NC1COCC12CCN(c1ncc(Sc3cccc(Cl)c3Cl)[nH]c1=O)CC2 (centres unmarked) [Compound 10, 3-(4-amino-2-oxa-8-azaspiro[4.5]decan-8-yl)-6-((2,3-dichlorophenyl)thio)pyrazin-2(1H)-one]				< 5000	< 100
CC1(CN)CCN(c2ncc(Sc3cccc(NC(=O)c4c(O)nc5n(c4=O)CCCC5)c3Cl)[nH]c2=O)CC1 [Compound 33, N-(3-((5-(4-(aminomethyl)-4-methylpiperidin-1-yl)-6-oxo-1,6-dihydropyrazin-2-yl)thio)-2-chlorophenyl)-2-hydroxy-4-oxo-6,7,8,9-tetrahydro-4H-pyrido[1,2-a]pyrimidine-3-carboxamide]		< 100	≤ 50		
CC1(CN)CCN(c2ncc(Sc3cccc(Cl)c3Cl)[nH]c2=O)CC1 [Compound 2, 3-(4-(aminomethyl)-4-methylpiperidin-1-yl)-6-((2,3-dichlorophenyl)thio)pyrazin-2(1H)-one]			≤ 50	< 5000	< 500
C[C@@H]1OCC2(CCN(c3ncc(Sc4cccc(F)c4F)[nH]c3=O)CC2)[C@@H]1N [Compound 82, 3-((3S,4S)-4-amino-3-methyl-2-oxa-8-azaspiro[4.5]decan-8-yl)-6-((2,3-difluorophenyl)thio)pyrazin-2(1H)-one]	< 5000	< 100	≤ 50		
C[C@@H]1OCC2(CCN(c3ncc(Sc4cccc(Cl)c4Cl)[nH]c3=O)CC2)[C@@H]1N [Compound 14]	< 1000	< 100	≤ 50		
N[C@@H]1COCC12CCN(c1ncc(Sc3ccnc(Cl)c3Cl)[nH]c1=O)CC2 [Compound 88, (S)-3-(4-amino-2-oxa-8-azaspiro[4.5]decan-8-yl)-6-((2,3-dichloropyridin-4-yl)thio)pyrazin-2(1H)-one]			≤ 50		
C[C@@H]1OCC2(CCN(c3ncc(Sc4ccnc(N)c4Cl)[nH]c3=O)CC2)[C@@H]1N [Compound 77, 6-((2-amino-3-chloropyridin-4-yl)thio)-3-((3S,4S)-4-amino-3-methyl-2-oxa-8-azaspiro[4.5]decan-8-yl)pyrazin-2(1H)-one]			≤ 50		
C[C@@H]1OCC2(CCN(c3ncc(Sc4cccc(F)c4Cl)[nH]c3=O)CC2)[C@@H]1N [Compound 109, 3-((3S,4S)-4-amino-3-methyl-2-oxa-8-azaspiro[4.5]decan-8-yl)-6-((2-chloro-3-fluorophenyl)thio)pyrazin-2(1H)-one]	< 5000	< 100	≤ 50		
Cn1c(N2CCC(C)(CN)C2)nc(N)c(Sc2cccc(Cl)c2Cl)c1=O (centres unmarked) [Compound 52, 6-amino-2-(3-(aminomethyl)-3-methylpyrrolidin-1-yl)-5-((2,3-dichlorophenyl)thio)-3-methylpyrimidin-4(3H)-one]			≤ 50		
CC1(CN)CCN(c2nc3[nH]nc(Oc4cccc(Cl)c4Cl)c3c(=O)[nH]2)CC1 [Compound 35, 6-(4-(aminomethyl)-4-methylpiperidin-1-yl)-3-(2,3-dichlorophenoxy)-1,5-dihydro-4H-pyrazolo[3,4-d]pyrimidin-4-one]		< 500	≤ 50		
CC1(CN)CCN(c2ncc(Sc3cccc(NC(=O)c4c(O)nc5cnccn5c4=O)c3Cl)[nH]c2=O)CC1 [Compound 30, N-(3-((5-(4-(aminomethyl)-4-methylpiperidin-1-yl)-6-oxo-1,6-dihydropyrazin-2-yl)thio)-2-chlorophenyl)-2-hydroxy-4-oxo-4H-pyrazino[1,2-a]pyrimidine-3-carboxamide]		< 100			
CC1(CN)CCN(c2ncc(Sc3cccc(NC(=O)c4c(O)nc5ccccn5c4=O)c3Cl)[nH]c2=O)CC1 [Compound 29, N-(3-((5-(4-(aminomethyl)-4-methylpiperidin-1-yl)-6-oxo-1,6-dihydropyrazin-2-yl)thio)-2-chlorophenyl)-2-hydroxy-4-oxo-4H-pyrido[1,2-a]pyrimidine-3-carboxamide]	< 5000	< 100	≤ 50		
CC1(CN)CCN(c2ncc(Sc3cccc(NC(=O)c4c(O)nc5sccn5c4=O)c3Cl)[nH]c2=O)CC1 [Compound 31, N-(3-((5-(4-(aminomethyl)-4-methylpiperidin-1-yl)-6-oxo-1,6-dihydropyrazin-2-yl)thio)-2-chlorophenyl)-7-hydroxy-5-oxo-5H-thiazolo[3,2-a]pyrimidine-6-carboxamide]	< 5000	< 100	≤ 50		
CC1(CN)CCN(c2nc3[nH]nc(Nc4cccc(Cl)c4Cl)c3c(=O)[nH]2)CC1 [Compound 34, 6-(4-(aminomethyl)-4-methylpiperidin-1-yl)-3-((2,3-dichlorophenyl)amino)-1,5-dihydro-4H-pyrazolo[3,4-d]pyrimidin-4-one]		< 500	≤ 50		
CC1(CN)CCN(c2ncc(Sc3cccc(NC(=O)c4c(O)nc5[nH]ccn5c4=O)c3Cl)[nH]c2=O)CC1 [Compound 32, N-(3-((5-(4-(aminomethyl)-4-methylpiperidin-1-yl)-6-oxo-1,6-dihydropyrazin-2-yl)thio)-2-chlorophenyl)-7-hydroxy-5-oxo-1,5-dihydroimidazo[1,2-a]pyrimidine-6-carboxamide]			≤ 50		
COc1nccc(Sc2cnc(N3CCC4(CC3)CO[C@@H](C)[C@H]4N)c(=O)[nH]2)c1Cl [Compound 80, 3-((3S,4S)-4-amino-3-methyl-2-oxa-8-azaspiro[4.5]decan-8-yl)-6-((3-chloro-2-methoxypyridin-4-yl)thio)pyrazin-2(1H)-one]		< 100	≤ 50		
C[C@@H]1OCC2(CCN(c3ncc(Sc4cc[nH]c(=O)c4Cl)[nH]c3=O)CC2)[C@@H]1N [Compound 107, 3-((3S,4S)-4-amino-3-methyl-2-oxa-8-azaspiro[4.5]decan-8-yl)-6-((3-chloro-2-oxo-1,2-dihydropyridin-4-yl)thio)pyrazin-2(1H)-one]			≤ 50		
N[C@@H]1c2ccccc2OC12CCN(c1ncc(Sc3cccc(Cl)c3Cl)[nH]c1=O)CC2 [Compound 87, (R)-3-(3-amino-3H-spiro[benzofuran-2,4′-piperidin]-1′-yl)-6-((2,3-dichlorophenyl)thio)pyrazin-2(1H)-one]			≤ 50		
NC1CCCC(n2ccc(-c3cccc(Cl)c3Cl)cc2=O)C1 (centres unmarked) [Compound 74, 1-(3-aminocyclohexyl)-4-(2,3-dichlorophenyl)pyridin-2(1H)-one]			≤ 50		
NC1C2CC2CC12CCN(c1ncc(Sc3cccc(Cl)c3Cl)[nH]c1=O)CC2 (centres unmarked) [Compound 13, 3-(2-aminospiro[bicyclo[3.1.0]hexane-3,4′-piperidin]-1′-yl)-6-((2,3-dichlorophenyl)thio)pyrazin-2(1H)-one]			≤ 50		
C[C@@H]1OCC2(CCN(c3ncc(Sc4ccnc(F)c4Cl)[nH]c3=O)CC2)[C@@H]1N [Compound 83, 3-((3S,4S)-4-amino-3-methyl-2-oxa-8-azaspiro[4.5]decan-8-yl)-6-((3-chloro-2-fluoropyridin-4-yl)thio)pyrazin-2(1H)-one]	< 1000	< 100	≤ 50		
